Assay results as given in patent US4699910A, “N-(3-trifluoromethyl-phenyl)-N'-propargyl-piperazine and salts thereof useful as analgesics” (Boehringer Ingelheim KG, priority 1983, dated 1987).

How the values were obtained:
Format in all cases: in vivo
[1] = Writhing test (analgesia)
[2] = Gait test (analgesia); conditions: sc
Excerpt: Atkinson, D. C., and Cowan, A. J., Pharm. Pharmacol. 26, 727-728 (1974)

[3] = tested on: Rabbit's tooth pulp; assay: Rabbit's tooth pulp test (analgesia); conditions: s.c.
Excerpt: 3. Rabbit's tooth pulp test
Hoffmeister, F., Arzneimittelf. 16 (supplement), 1968.

[4] = po, read-out: Writhing test ED50 p.o.
[5] = sc, read-out: Writhing test ED50 s.c.

Row | SMILES | ED50 [1, 4] [mg/kg] | ED50 [1, 5] [mg/kg] | ED50 [2] [mg/kg] | Rabbit's tooth pulp test EDIV [3]
1 | Cc1c(N(C)CS(=O)(=O)O)c(=O)n(-c2ccccc2)n1C [Metamizole-sodium (Novalgin ®)] | 80 | 25 | 97 | approx. 560
2 | C#CCN1CCN(c2cccc(C(F)(F)F)c2)CC1.Cl [N-(3-Trifluoromethyl-phenyl)-N'-propargyl-piperazine hydrochloride] | 43 | 5.3 | 2.8 | approx. 10
